Assay results reported in patent publication US20260297136A1, “PEPTIDES WITH LIPOLYTIC, ANTI-LIPOGENIC, ANTIFIBROTIC AND ANTI-INFLAMMATORY ACTIVITY” (FUNDACIÓ HOSPITAL UNIVERSITARI VALL D'HEBRON - INSTITUT DE …, priority 2023, published 2026).

Experiments:
human mature adipocytes [1] = assay: Lipolysis in human mature adipocytes (glycerol production), Example 2; assay type: cell-based; conditions: 16 h
Protocol: FIG. 7. Mature human subcutaneous adipocytes were treated with vehicle (DMSO), 3 μM of Isoproterenol or 10 μM of GP4, GP8 or GP9 for 16 h. Glycerol concentration was assessed using a Lipolysis Assay Kit (Tebu-bio). Lipolysis induction was calculated with respect to the control cells treated with DMSO.
(§1) Human preadipocytes and cell culture reagents were from purchased from Tebu-Bio (Tebu-bio, Barcelona, Spain) and differentiation protocol was done following the manufacturer's instructions. Human adipocytes were maintained in a humidified incubator with 5% CO2 at 37° C. (Sex hormone-binding globulin overexpression protects against high-fat diet-induced obesity in transgenic male mice. Saez-Lopez C, Villena J A, Simo R, Selva D M. J Nutr Biochem. 2020 November; 85:108480. doi: 10.1016/j.jnutbio.2020.108480).
Lipolysis assays were performed using a Lipolysis Kit (Tebu-Bio) following the manufacturer's instructions as previously described.

human mature adipocytes [2] = assay: Lipolysis in human mature adipocytes (glycerol production), Example 3; assay type: cell-based; conditions: Homo sapiens, Adipocyte; 1 μM, 16 h, with respect to controls; read-out: increase of glycerol concentration (lipolysis positive control)
Protocol: FIG. 4 Mature human subcutaneous adipocytes were treated with vehicle (DMSO), 1 μM of Isoproterenol, Semaglutide (10 nM) or GP6 (25, 50 or 100 μg/ml) for 16 h. Glycerol concentration was assessed using a Lipolysis Assay Kit (Tebu-bio).
as §1
Lipolysis assays were performed using a Lipolysis Kit (Tebu-Bio) following the manufacturer's instructions as previously described by Saez-Lopez and collaborators (Sex hormone-binding globulin overexpression protects against high-fat diet-induced obesity in transgenic male mice. Saez-Lopez C, Villena J A, Simo R, Selva D M. J Nutr Biochem. 2020 November; 85:108480. doi: 10.1016/j.jnutbio.2020.108480.)

HepG2 cells [3] = assay: Hepatic lipogenic key enzymes in HepG2 cells in the presence of 30 mM fructose (2 h), Example 7; assay type: cell-based, human
Protocol: FIG. 34. Effects of different peptides and SHBG in reducing hepatic lipogenic key enzymes in the presence of 30 mM fructose. Each bar within each group represents mRNA levels of a key hepatic lipogenic enzyme, from left to right: Acetyl-CoA Carboxylase (ACC), ATP Citrate Lyase (ACLY) and Fatty Acid Synthase (FAS), and a key transcription factor regulating several lipogenic enzymes such as PPARγ (PPARγ).
Cell culture reagents were from Life Technologies Inc (Invitrogen SA, Barcelona, Spain). HepG2 hepatoblastoma cells (cat. no. HB-8065; ATCC, LGC Standards SLU, Barcelona, Spain) were maintained in Dulbecco's modified Eagle medium (DMEM) supplemented with 10% fetal bovine serum and antibiotics.
• HepG2 cells were cultured for 5 day in the absence or presence of 30 mM fructose. Cells cultured in 30 mM fructose were daily treated with vehicle, Telmisartan, Semaglutide or EDL6D. • HepG2 cells were cultured for 24 h in the absence or presence of GP6 (40 μg/ml), GP10 (40 μg/ml), GP11 (40 μg/ml), GP12 (40 μg/ml), GP13 (40 μg/ml) or SHBG (20 nM). • HepG2 cells were cultured in the absence or presence of 30 mM fructose and treated for 2 h with vehicle or GP4 (40 μg/ml), GP6 (40 μg/ml), GP7 (40 μg/ml), GP8 (40 μg/ml), GP9 (40 μg/ml), GP10 (40 μg/ml), GP11 (40 μg/ml), GP12 (40 μg/ml), GP13 (40 μg/ml) or SHBG (20 nM).
(§2) Total RNA was extracted from HepG2 and LX-2 cells using TRIzol reagent (Invitrogen SA). Reverse transcription was performed at 42° C. for 50 minutes using […] of total RNA, 200 U of Superscript II, and an oligo-dT primer and reagents provided by Invitrogen. An aliquot of the reverse transcription product was amplified in a […] reaction using SYBRGreen (Invitrogen SA) with appropriate oligonucleotide primer pairs corresponding to human SHBG, ACC, FAS, ACLY, PPARG, and 18S and mouse ACC, FAS, ACLY, PPARG, Col1A1 and 18S. Results were analyzed using the 7000 Sequence Detection System program (Applied Biosystems, Thermo Fisher Scientific, Barcelona, Spain) (Shez-Lopez et al Endocrinology 2017).

HepG2 cells [4] = assay: Hepatic lipogenesis gene expression (ACC, FAS, ACLY mRNA by RTPCR) in HepG2 cells, Example 2; assay type: cell-based, human; conditions: 10 μM, 24 h, relative to 18S
Protocol: FIG. 5 Human hepatoblastoma cell line HepG2 was treated with vehicle (DMSO) or 10 μM of GP4, GP7, GP8 or GP9 for 24 h. RNA was extracted and mRNA levels of Acetyl-CoA Carboxylase (ACC), Fatty Acid Synthase (FAS) and ATP-Citrate Lyase (ACLY) relative to 18S were measured by RTPCR.
(§3) Cell culture reagents were from Life Technologies Inc (Invitrogen SA, Barcelona, Spain). HepG2 hepatoblastoma cells (cat. no. HB-8065; ATCC, LGC Standards SLU, Barcelona, Spain) were maintained in Dulbecco's modified Eagle medium (DMEM) supplemented with 10% fetal bovine serum and antibiotics. HepG2 cells were treated with vehicle or 10 μM of GP4, GP7, GP8 and GP9 for 24 h. LX-2 human hepatic stellate cells (SCC064) were maintained in DMEM supplemented with 2% fetal bovine serum and antibiotics. For experiments, LX-2 were cultured for 24 h in DMEM 0.2% FBS and treated for 24 h with vehicle or TGFβ1 (20 ng/ml) in the absence or presence of 8 μM of GP4, GP7, GP8 and GP9 for 24 h. At the end of the experiment's cells were harvested for gene expression analysis.
as §2, with “human” for “human SHBG,”, “Col1A1” for “PPARG,”, “(shown in table 7).” for “and mouse ACC, FAS, ACLY, PPARG, Col1A1 and 18S.”, “(Sex Hormone-Binding Globulin Reduction in Metabolic Disorders May Play a Role in NAFLD Development.Saez-Lopez C, Barbosa-Desongles A, Hernandez C, Dyer R A, Innis S M, Simo R, Selva D M. Endocrinology. 2017 Mar. 1; 158(3):545-559. doi: 10.1210/en.2016-1668).” for “(Shez-Lopez et al Endocrinology 2017).”

LX-2 cells = assay: Fibrosis in LX-2 cells: Col1A1 mRNA induced by TGFβ1, Example 2; assay type: cell-based, human; conditions: 8 μM, 24 h
Protocol: FIG. 6. Human hepatic stellate cell line LX-2 was treated with vehicle (DMSO) or TGFβ1 (10 ng/ml) in the absence or presence of 8 μM of GP8 or GP9 for 24 h. RNA was extracted and mRNA levels of collagen 1A1 (Col1A1) relative to 18S were measured by RTPCR.
as §3, with “For experiments, LX-2 were cultured for 24 h in DMEM 0.2% FBS and treated for 24 h with vehicle or TGFβ1 (20 ng/ml) in the absence or presence of 8 μM of GP4, GP7, GP8 and GP9 for 24 h. At the end of the experiment's cells were harvested for gene expression analysis.” left out
Total RNA was extracted from HepG2 and LX-2 cells using TRIzol reagent (Invitrogen SA). […] Results were analyzed using the 7000 Sequence Detection System program (Applied Biosystems, Thermo Fisher Scientific, Barcelona, Spain) (Sex Hormone-Binding Globulin Reduction in Metabolic Disorders May Play a Role in NAFLD Development.Saez-Lopez C, Barbosa-Desongles A, Hernandez C, Dyer R A, Innis S M, Simo R, Selva D M. Endocrinology. 2017 Mar. 1; 158(3):545-559. doi: 10.1210/en.2016-1668).

[5] = EP 3003351 A1; cited from earlier work

Molecule: CC(C)NCC(O)c1ccc(O)c(O)c1 (stereo not shown) [isoproterenol, 4-[1-hydroxy-2-(propan-2-ylamino)ethyl]benzene-1,2-diol, reference compound]
- activation at 3 µM (human mature adipocytes [1]; Homo sapiens, Adipocyte, 3 μM, with respect to control, read-out: increase of glycerol concentration (lipolysis positive control)): 370%
- activation at 1 µM (human mature adipocytes [2]): 400%

Molecule: CC[C@@H](C)[C@@H](NC(=O)[C@H](NC(=O)CNC(=O)[C@@H](CCC(=O)O)NC(=O)[C@H]1CCCN1C(=O)[C@@H](CC(=O)O)NC(=O)[C@@H](Cc1c[nH]c2ccccc12)NC(=O)[C@H](N)[C@H](C)O)C(C)C)C(=O)N[C@H](Cc1ccccc1)C(=O)N[C@H](Cc1ccc(O)cc1)C(=O)NCC(=O)N[C@H](CC(=O)O)C(=O)N[C@@H](C(=O)N[C@H](CC(N)=O)C(=O)N1CCC[C@@H]1C(=O)N[C@H](CCCCN)C(=O)N[C@H](CC(=O)O)C(=O)N[C@H](CC(=O)O)C(=O)N[C@H](Cc1c[nH]c2ccccc12)C(=O)N[C@H](Cc1ccccc1)C(=O)N[C@H](CCSC)C(=O)N[C@H](CC(C)C)C(=O)NCC(=O)N[C@H](CC(C)C)C(=O)N[C@H](CCCNC(=N)N)C(=O)N[C@H](CC(=O)O)C(=O)NCC(=O)N[C@H](CCCNC(=N)N)C(=O)N1CCC[C@@H]1C(=O)N[C@H](CCC(=O)O)C(=O)O)[C@H](C)O [GP9]
- increase of glycerol production (lipolysis) (human mature adipocytes [1]; 10 μM, with respect to control cells): 170%
- fructose-induced expression of ACC (HepG2 cells [3]; 40 μg/ml): able to reduce the expression of ACC and ACLY more effectively than SHBG
- fructose-induced expression of ACLY (HepG2 cells [3]; 40 μg/ml): able to reduce the expression of ACC and ACLY more effectively than SHBG
- fructose-induced expression of FAS (HepG2 cells [3]; 40 μg/ml): had no effect on FAS
- fructose-induced expression of PPARγ (HepG2 cells [3]; 40 μg/ml): increased PPARγ expression
- ATP-Citrate Lyase (ACLY) mRNA levels (HepG2 cells [4]): did not alter
- Acetyl-CoA Carboxylase (ACC) mRNA levels (HepG2 cells [4]): did not alter
- Fatty Acid Synthase (FAS) mRNA levels (HepG2 cells [4]): reduced
- reduction of Col1A1 mRNA levels induced by TGFβ1 (LX-2 cells): 21%

B1: SHBG: sex hormone-binding globulin (SHBG) protein (protein, UniProt P04278 30-402, looked up)
Sex hormone-binding globulin: LRPVLPTQSAHDPPAVHLSNGPGQEPIAVMTFDLTKITKTSSSFEVRTWDPEGVIFYGDTNPKDDWFMLGLRDGRPEIQLHNHWAQLTVGAGPRLDDGRWHQVEVKMEGDSVLLEVDGEEVLRLRQVSGPLTSKRHPIMRIALGGLLFPASNLRLPLVPALDGCLRRDSWLDKQAEISASAPTSLRSCDVESNPGIFLPPGTQAEFNLRDIPQPHAEPWAFSLDLGLKQAAGSGHLLALGTPENPSWLSLHLQDQKVVLSSGSGPGLDLPLVLGLPLQLKLSMSRVVLSQGSKMKALALPPLGLAPLLNLWAKPQGRLFLGALPGEDSSTSFCLNGLWAQGQRLDVDQALNRSHEIWTHSCPQSPGNGTDASH
- lipolytic and anti-lipogenic activity [5]: has lipolytic and anti-lipogenic activity
- fructose-induced expression of ACC (HepG2 cells [3]; SHBG 20 nM): able to reduce
- fructose-induced expression of ACLY (HepG2 cells [3]; SHBG 20 nM): able to reduce
- fructose-induced expression of FAS (HepG2 cells [3]; SHBG 20 nM): able to reduce
- fructose-induced expression of PPARγ (HepG2 cells [3]; SHBG 20 nM): able to reduce
